Experimental data as given in PMC3466204 (PLoS ONE, 2012).
Ends that are not written are not given here.

Test system: Lactococcus lactis HP
Test: Agarose-based assay of cell-free supernatants of S29X producing strains
Settings: for Zone Diameter (mm): agarose (1%) GM17 assay, 10 µl cell-free supernatant of overnight producing culture in 4.6 mm wells, L. lactis HP, 30°C; for % difference (zone relative to wild type): agarose assay of supernatants against L. lactis HP, wild type serine = 100
Description: Agarose-based deferred antagonism assays were carried out as follows: GM17/LB (0.03%) underlay was prepared with 10 mM sodium phosphate buffer (SPB) at pH 7.4 to which was added agarose (1% w/v agarose), autoclaved and cooled to 50°C. Bacteria grown to mid-logarithmic phase were harvested by centrifugation and washed with 10 mM SPB at pH 7.4. Bacteria were then added to 15 mls cooled underlay medium to reach a concentration of 2×10^7 colony-forming units (CFU)/mL. The inoculated medium was rapidly transferred into sterile Petri plates, allowed to solidify and dried. Wells (4.6 mm in diameter) were then made in the seeded plates. 10 µl volumes of cell-free supernatant from overnight nisin derivative producing cultures or resuspended purified peptides were then added to the wells and the plates incubated at 30°C (L. lactis) or 37°C (Gram positive strains) or RT (Gram negative strains) for 3 hours. Polymyxin B (Sigma Aldrich) was used at a concentration of 20 µg/ml. The plates were then overlaid with 15 mls of autoclaved double strength GM17 (L. lactis) or LB (Gram negatives) agarose (1% w/v agarose) overlay medium precooled to 50°C. The plates were then incubated overnight at the relevant temperature.

S29K: nisin A S29 saturation derivative, lysine at position 29 (ITSISLCTPGCKTGALMGCNMKTATCHCKIHVSK; not fully specified (bridges); also: lantibiotic nisin A (lanthionine rings, dehydrated residues not placed); UniProt P13068 24-57, looked up, variant S29K)
Zone Diameter (mm): 9.9±1.0 mm | % difference (zone relative to wild type): 64%

S29H: nisin A S29 saturation derivative, histidine at position 29 (ITSISLCTPGCKTGALMGCNMKTATCHCHIHVSK; not fully specified (bridges); also: lantibiotic nisin A (lanthionine rings, dehydrated residues not placed); UniProt P13068 24-57, looked up, variant S29H)
Zone Diameter (mm): 10.9±0.3 mm | % difference (zone relative to wild type): 72%

S29F: nisin A S29 saturation derivative, phenylalanine at position 29 (ITSISLCTPGCKTGALMGCNMKTATCHCFIHVSK; not fully specified (bridges); also: lantibiotic nisin A (lanthionine rings, dehydrated residues not placed); UniProt P13068 24-57, looked up, variant S29F)
Zone Diameter (mm): 11.0±1.0 mm | % difference (zone relative to wild type): 72%

S29V: nisin A S29 saturation derivative, valine at position 29 (ITSISLCTPGCKTGALMGCNMKTATCHCVIHVSK; not fully specified (bridges); also: lantibiotic nisin A (lanthionine rings, dehydrated residues not placed); UniProt P13068 24-57, looked up, variant S29V)
Zone Diameter (mm): 11.6±0.4 mm | % difference (zone relative to wild type): 76%

S29C: nisin A S29 saturation derivative, cysteine at position 29 (ITSISLCTPGCKTGALMGCNMKTATCHCCIHVSK; not fully specified; cysteine pairing not given here; UniProt P13068 24-57, looked up, variant S29C)
Zone Diameter (mm): 10.5±1.0 mm | % difference (zone relative to wild type): 69%

S29Q: nisin A S29 derivative, glutamine at position 29, made by site-directed mutagenesis (ITSISLCTPGCKTGALMGCNMKTATCHCQIHVSK; not fully specified; cysteine pairing not given here; UniProt P13068 24-57, looked up, variant S29Q)
Zone Diameter (mm): 15.3±0.1 mm | % difference (zone relative to wild type): 100%

S29W: nisin A S29 saturation derivative, tryptophan at position 29 (ITSISLCTPGCKTGALMGCNMKTATCHCWIHVSK; not fully specified; cysteine pairing not given here; UniProt P13068 24-57, looked up, variant S29W)
Zone Diameter (mm): 12.1±1.2 mm | % difference (zone relative to wild type): 79%

S29L: nisin A S29 saturation derivative, leucine at position 29 (ITSISLCTPGCKTGALMGCNMKTATCHCLIHVSK; not fully specified; cysteine pairing not given here; UniProt P13068 24-57, looked up, variant S29L)
Zone Diameter (mm): 12.7±0.7 mm | % difference (zone relative to wild type): 84%

S29I: nisin A S29 saturation derivative, isoleucine at position 29 (ITSISLCTPGCKTGALMGCNMKTATCHCIIHVSK; not fully specified; cysteine pairing not given here; UniProt P13068 24-57, looked up, variant S29I)
Zone Diameter (mm): 9.9±1.0 mm | % difference (zone relative to wild type): 65%

S29P: nisin A S29 saturation derivative, proline at position 29 (ITSISLCTPGCKTGALMGCNMKTATCHCPIHVSK; not fully specified (bridges); also: lantibiotic nisin A (lanthionine rings, dehydrated residues not placed); UniProt P13068 24-57, looked up, variant S29P)
Zone Diameter (mm): 13.7±1.0 mm | % difference (zone relative to wild type): 89%

S29Y: nisin A S29 saturation derivative, tyrosine at position 29 (ITSISLCTPGCKTGALMGCNMKTATCHCYIHVSK; not fully specified (bridges); also: lantibiotic nisin A (lanthionine rings, dehydrated residues not placed); UniProt P13068 24-57, looked up, variant S29Y)
Zone Diameter (mm): 10.6±0.6 mm | % difference (zone relative to wild type): 70%

S29T: nisin A S29 saturation derivative, threonine at position 29 (ITSISLCTPGCKTGALMGCNMKTATCHCTIHVSK; not fully specified (bridges); also: lantibiotic nisin A (lanthionine rings, dehydrated residues not placed); UniProt P13068 24-57, looked up, variant S29T)
Zone Diameter (mm): 12.1±0.9 mm | % difference (zone relative to wild type): 79%

S29R: nisin A S29 saturation derivative, arginine at position 29 (ITSISLCTPGCKTGALMGCNMKTATCHCRIHVSK; not fully specified (bridges); also: lantibiotic nisin A (lanthionine rings, dehydrated residues not placed); UniProt P13068 24-57, looked up, variant S29R)
Zone Diameter (mm): 11.0±0.6 mm | % difference (zone relative to wild type): 72%

S29N: nisin A S29 saturation derivative, asparagine at position 29 (ITSISLCTPGCKTGALMGCNMKTATCHCNIHVSK; not fully specified; cysteine pairing not given here; UniProt P13068 24-57, looked up, variant S29N)
Zone Diameter (mm): 12.6±1.0 mm | % difference (zone relative to wild type): 83%
